Source: PubChem BioAssay (NCI)
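Interpolation was linear, between the two tested concentrations surrounding the appropriate level; five concentrations were tested over 48 hours in 96-well plates. At the GI50, growth is halved. TGI: concentration producing complete growth inhibition.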

Tests used:
Experiment in all cases: NCI-60 cell line screen, 48 h
NCI-H460 lung = tested on: NCI-H460 lung
HL-60(TB) leukemia = tested on: HL-60(TB) leukemia
HT29 colon = tested on: HT29 colon
HCT-116 colon = tested on: HCT-116 colon
SF-295 CNS = tested on: SF-295 CNS
NCI-H226 lung = tested on: NCI-H226 lung
A498 renal = tested on: A498 renal
A549 NSCLC = tested on: A549 NSCLC
OVCAR-3 ovarian = tested on: OVCAR-3 ovarian
MOLT-4 leukemia = tested on: MOLT-4 leukemia
MDA-MB-468 breast = tested on: MDA-MB-468 breast
MDA-MB-435 = tested on: MDA-MB-435
HS 578T breast = tested on: HS 578T breast
CAKI-1 renal = tested on: CAKI-1 renal
SK-MEL-28 melanoma = tested on: SK-MEL-28 melanoma
UACC-257 melanoma = tested on: UACC-257 melanoma
COLO 205 colon = tested on: COLO 205 colon
SW-620 colon = tested on: SW-620 colon
SNB-19 CNS = tested on: SNB-19 CNS
MALME-3M melanoma = tested on: MALME-3M melanoma
UACC-62 melanoma = tested on: UACC-62 melanoma
LOX IMVI melanoma = tested on: LOX IMVI melanoma
SF-268 CNS = tested on: SF-268 CNS
NCI-H522 lung = tested on: NCI-H522 lung
HCT-15 colon = tested on: HCT-15 colon
U251 CNS = tested on: U251 CNS
BT-549 breast = tested on: BT-549 breast
IGROV1 ovarian = tested on: IGROV1 ovarian
PC-3 prostate = tested on: PC-3 prostate
M14 melanoma = tested on: M14 melanoma
TK-10 renal = tested on: TK-10 renal
KM12 colon = tested on: KM12 colon
UO-31 renal = tested on: UO-31 renal
RXF 393 renal = tested on: RXF 393 renal
SNB-75 CNS = tested on: SNB-75 CNS
NCI-H23 lung = tested on: NCI-H23 lung
HOP-92 NSCLC = tested on: HOP-92 NSCLC
K-562 leukemia = tested on: K-562 leukemia
CCRF-CEM leukemia = tested on: CCRF-CEM leukemia
SN12C renal = tested on: SN12C renal
OVCAR-5 ovarian = tested on: OVCAR-5 ovarian
DU-145 prostate = tested on: DU-145 prostate
RPMI-8226 leukemia = tested on: RPMI-8226 leukemia
ACHN renal = tested on: ACHN renal
NCI/ADR-RES ovarian = tested on: NCI/ADR-RES ovarian
HCC-2998 colon = tested on: HCC-2998 colon
MDA-MB-231 breast = tested on: MDA-MB-231 breast
SK-MEL-2 melanoma = tested on: SK-MEL-2 melanoma
MCF7 breast = tested on: MCF7 breast
786-0 renal = tested on: 786-0 renal
OVCAR-4 ovarian = tested on: OVCAR-4 ovarian
SK-OV-3 ovarian = tested on: SK-OV-3 ovarian
SF-539 CNS = tested on: SF-539 CNS
HOP-62 NSCLC = tested on: HOP-62 NSCLC
OVCAR-8 ovarian = tested on: OVCAR-8 ovarian
SK-MEL-5 melanoma = tested on: SK-MEL-5 melanoma
EKVX NSCLC = tested on: EKVX NSCLC
T-47D breast = tested on: T-47D breast

With CC(=O)/C=C/c1cccc2c1C(=O)NC(C)(c1cc3cc(Br)ccc3oc1=O)N2 (stereo unspecified) the GI50 (NCI-H460 lung) was 15.7 µM, the TGI (NCI-H460 lung) was 67.6 µM and the GI50 (HL-60(TB) leukemia) was 5.61 µM. For the same compound, the TGI (HL-60(TB) leukemia) was greater than 100 µM, the GI50 (HT29 colon) was 20.7 µM and the TGI (HT29 colon) was 73.6 µM. It also gave a GI50 (HCT-116 colon) of 7.13 µM, a TGI (HCT-116 colon) of 21.3 µM and a GI50 (SF-295 CNS) of 11.1 µM. For the same compound, the TGI (SF-295 CNS) was 25.4 µM, the GI50 (NCI-H226 lung) was 13.6 µM and the TGI (NCI-H226 lung) was 58.6 µM. The GI50 (A498 renal) was 28.1 µM, the TGI (A498 renal) was greater than 100 µM and the GI50 (A549 NSCLC) was 23.5 µM. For the same compound, the TGI (A549 NSCLC) was greater than 100 µM, the GI50 (OVCAR-3 ovarian) was 7.56 µM and the TGI (OVCAR-3 ovarian) was 24.7 µM. For the same compound, the GI50 (MOLT-4 leukemia) was 8.47 µM, the TGI (MOLT-4 leukemia) was greater than 100 µM and the GI50 (MDA-MB-468 breast) was 4.28 µM. For the same compound, the TGI (MDA-MB-468 breast) was 19 µM, the GI50 (MDA-MB-435) was 10.6 µM and the TGI (MDA-MB-435) was 30.9 µM. For the same compound, the GI50 (HS 578T breast) was 17.2 µM, the TGI (HS 578T breast) was greater than 100 µM and the GI50 (CAKI-1 renal) was 3.87 µM. It also gave a TGI (CAKI-1 renal) of 28.5 µM, a GI50 (SK-MEL-28 melanoma) of 13.7 µM and a TGI (SK-MEL-28 melanoma) of 27.8 µM. The GI50 (UACC-257 melanoma) was 10.4 µM, the TGI (UACC-257 melanoma) was 26.2 µM and the GI50 (COLO 205 colon) was 19.6 µM. It also gave a TGI (COLO 205 colon) of 40.9 µM, a GI50 (SW-620 colon) of 19.5 µM and a TGI (SW-620 colon) greater than 100 µM. The GI50 (SNB-19 CNS) was 12.5 µM, the TGI (SNB-19 CNS) was 25.1 µM and the GI50 (MALME-3M melanoma) was 11.4 µM. The TGI (MALME-3M melanoma) was 29.9 µM, the GI50 (UACC-62 melanoma) was 7.01 µM and the TGI (UACC-62 melanoma) was 21.3 µM. It also gave a GI50 (LOX IMVI melanoma) of 10.1 µM, a TGI (LOX IMVI melanoma) of 22 µM and a GI50 (SF-268 CNS) of 12.4 µM. The TGI (SF-268 CNS) was 48.3 µM, the GI50 (NCI-H522 lung) was 13.6 µM and the TGI (NCI-H522 lung) was 28.8 µM. The GI50 (HCT-15 colon) was 10.6 µM, the TGI (HCT-15 colon) was 32.4 µM and the GI50 (U251 CNS) was 12.1 µM. The TGI (U251 CNS) was 25.5 µM, the GI50 (BT-549 breast) was 4.78 µM and the TGI (BT-549 breast) was 18.9 µM. For the same compound, the GI50 (IGROV1 ovarian) was 8.12 µM, the TGI (IGROV1 ovarian) was 32.9 µM and the GI50 (PC-3 prostate) was 5.95 µM. The TGI (PC-3 prostate) was 39.1 µM, the GI50 (M14 melanoma) was 9.29 µM and the TGI (M14 melanoma) was 25.3 µM. For the same compound, the GI50 (TK-10 renal) was 24.5 µM, the TGI (TK-10 renal) was 89.6 µM and the GI50 (KM12 colon) was 12.4 µM. For the same compound, the TGI (KM12 colon) was 30.8 µM, the GI50 (UO-31 renal) was 3.59 µM and the TGI (UO-31 renal) was 19.1 µM. The GI50 (RXF 393 renal) was 2.33 µM, the TGI (RXF 393 renal) was 10.7 µM and the GI50 (SNB-75 CNS) was 1.3 µM. For the same compound, the TGI (SNB-75 CNS) was 19.3 µM, the GI50 (NCI-H23 lung) was 11.9 µM and the TGI (NCI-H23 lung) was 26.4 µM. The GI50 (HOP-92 NSCLC) was 2.19 µM, the TGI (HOP-92 NSCLC) was 18 µM and the GI50 (K-562 leukemia) was 4.67 µM. It also gave a TGI (K-562 leukemia) greater than 100 µM, a GI50 (CCRF-CEM leukemia) of 4.87 µM and a TGI (CCRF-CEM leukemia) of 56.7 µM. It also gave a GI50 (SN12C renal) of 6.57 µM, a TGI (SN12C renal) of 24.6 µM and a GI50 (OVCAR-5 ovarian) of 15.6 µM. The TGI (OVCAR-5 ovarian) was 38.3 µM, the GI50 (DU-145 prostate) was 8.98 µM and the TGI (DU-145 prostate) was 22.3 µM. The GI50 (RPMI-8226 leukemia) was 4.04 µM, the TGI (RPMI-8226 leukemia) was 33.8 µM and the GI50 (ACHN renal) was 5.02 µM. For the same compound, the TGI (ACHN renal) was greater than 100 µM, the GI50 (NCI/ADR-RES ovarian) was 15 µM and the TGI (NCI/ADR-RES ovarian) was 44.5 µM. It also gave a GI50 (HCC-2998 colon) of 15.1 µM, a TGI (HCC-2998 colon) of 28.6 µM and a GI50 (MDA-MB-231 breast) of 7.35 µM. The TGI (MDA-MB-231 breast) was 39.6 µM, the GI50 (SK-MEL-2 melanoma) was 10.2 µM and the TGI (SK-MEL-2 melanoma) was 27.3 µM. It also gave a GI50 (MCF7 breast) of 10.7 µM, a TGI (MCF7 breast) of 32.4 µM and a GI50 (786-0 renal) of 13.4 µM. The TGI (786-0 renal) was 32 µM, the GI50 (OVCAR-4 ovarian) was 11.5 µM and the TGI (OVCAR-4 ovarian) was greater than 100 µM. It also gave a GI50 (SK-OV-3 ovarian) of 25.2 µM, a TGI (SK-OV-3 ovarian) greater than 100 µM and a GI50 (SF-539 CNS) of 8.67 µM. The TGI (SF-539 CNS) was 22.3 µM, the GI50 (HOP-62 NSCLC) was 15.7 µM and the TGI (HOP-62 NSCLC) was 44 µM. It also gave a GI50 (OVCAR-8 ovarian) of 10.1 µM, a TGI (OVCAR-8 ovarian) greater than 100 µM and a GI50 (SK-MEL-5 melanoma) of 9.78 µM. The TGI (SK-MEL-5 melanoma) was 21.6 µM, the GI50 (EKVX NSCLC) was 7.36 µM and the TGI (EKVX NSCLC) was 21 µM. The GI50 (T-47D breast) was 11.5 µM and the TGI (T-47D breast) was 64 µM.
